Read-outs that look alike come from different tables or passages of the source. Values belong to the compound of their own block, whether it stands above or below them.
Test system: T47D (PIK3CA H1047R) cells
Experiment: pS473 AKT assay with 2.5% FBS, T47D cells
Format: cell-based
Details: pSer473 AKT, DMEM with 2.5% FBS, 2 h treatment, read-out: T47D_IC50
Method in brief: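 T47D (PIK3CA H1047R) cells were switched to DMEM with 2.5% FBS and exposed to compounds for 2 h. After paraformaldehyde fixation, pSer473 AKT was detected by in-cell ELISA (rabbit primary, HRP anti-rabbit secondary, chemiluminescence); IC50 values were fitted from the concentration series.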

SMILES: [2H]C([2H])([2H])n1c(=O)c2cc(C)cc(C(C)Nc3ccc(Cl)nc3-c3noc(=O)[nH]3)c2c2cnn(CC)c21 (stereo not shown) [Example 227, 3-(6-Chloro-3-((1-(3-ethyl-7-methyl-4-(methyl-d3)-5-oxo-4,5-dihydro-3H-pyrazolo[3,4-c]isoquinolin-9-yl)ethyl)amino)pyridin-2-yl)-1,2,4-oxadiazol-5(4H)-one]
IC50 (Homo sapiens): < 1000 nM

SMILES: CCn1ncc2c3c(C(C)Nc4ccc(Cl)nc4-c4ncn(C)n4)cc(C)cc3c(=O)n(C)c21 (stereo not shown) [Example 228, 9-(1-((6-chloro-2-(1-methyl-1H-1,2,4-triazol-3-yl)pyridin-3-yl)amino)ethyl)-3-ethyl-4,7-dimethyl-3,4-dihydro-5H-pyrazolo[3,4-c]isoquinolin-5-one]
IC50 (Homo sapiens): < 1000 nM

SMILES: CCn1ncc2c3c(C(C)Nc4ccc(Cl)nc4-c4nncn4C)cc(C)cc3c(=O)n(C)c21 (stereo not shown) [Example 229, 9-(1-((6-chloro-2-(4-methyl-1H-1,2,4-triazol-3-yl)pyridin-3-yl)amino)ethyl)-3-ethyl-4,7-dimethyl-3,4-dihydro-5H-pyrazolo[3,4-c]isoquinolin-5-one]
IC50 (Homo sapiens): < 1000 nM

SMILES: CCn1ncc2c3c(C(C)Nc4ccc(Cl)nc4-c4nnn[nH]4)cc(C)cc3c(=O)n(C)c21 (stereo not shown) [Example 230, 9-(1-((6-chloro-2-(1H-tetrazol-5-yl)pyridin-3-yl)amino)ethyl)-3-ethyl-4,7-dimethyl-3,4-dihydro-5H-pyrazolo[3,4-c]isoquinolin-5-one]
IC50 (Homo sapiens): < 1000 nM

SMILES: CCn1ncc2c3c(C(C)Nc4ccc(Cl)nc4-c4cnnn4C)cc(C)cc3c(=O)n(C)c21 (stereo not shown) [Example 231, 9-(1-((6-chloro-2-(1-methyl-1H-1,2,3-triazol-5-yl)pyridin-3-yl)amino)ethyl)-3-ethyl-4,7-dimethyl-3,4-dihydro-5H-pyrazolo[3,4-c]isoquinolin-5-one]
IC50 (Homo sapiens): < 1000 nM

SMILES: CCn1ncc2c3c(C(C)Nc4ccc(Cl)nc4-c4ccc(C(=O)O)cc4)cc(C)cc3c(=O)n(C)c21 (stereo not shown) [Example 232, 4-(6-chloro-3-((1-(3-ethyl-4,7-dimethyl-5-oxo-4,5-dihydro-3H-pyrazolo[3,4-c]isoquinolin-9-yl)ethyl)amino)pyridin-2-yl)benzoic acid]
IC50: < 1000 nM

SMILES: CCn1ncc2c3c(C(C)Nc4ccc(Cl)nc4-c4cnn(C5CCN(C(=O)N(C)C)CC5)c4)cc(C)cc3c(=O)n(C)c21 (stereo not shown) [Example 233, 4-(4-(6-chloro-3-((1-(3-ethyl-4,7-dimethyl-5-oxo-4,5-dihydro-3H-pyrazolo[3,4-c]isoquinolin-9-yl)ethyl)amino)pyridin-2-yl)-1H-pyrazol-1-yl)-N,N-dimethylpiperidine-1-carboxamide]
IC50 (Homo sapiens): < 1000 nM

SMILES: CCn1ncc2c3c(C(C)Nc4ccc(Cl)nc4-c4cnn(C5CCN(CCC#N)CC5)c4)cc(C)cc3c(=O)n(C)c21 (stereo not shown) [Example 234, 3-(4-(4-(6-chloro-3-((1-(3-ethyl-4,7-dimethyl-5-oxo-4,5-dihydro-3H-pyrazolo[3,4-c]isoquinolin-9-yl)ethyl)amino)pyridin-2-yl)-1H-pyrazol-1-yl)piperidin-1-yl)propanenitrile]
IC50 (Homo sapiens): < 1000 nM

SMILES: CCn1ncc2c3c(C(C)Nc4ccc(C)nc4-c4c[nH]nc4C)cc(C)cc3c(=O)n(C)c21 (stereo not shown) [Example 235, 3-ethyl-4,7-dimethyl-9-(1-((6-methyl-2-(3-methyl-1H-pyrazol-4-yl)pyridin-3-yl)amino)ethyl)-3,4-dihydro-5H-pyrazolo[3,4-c]isoquinolin-5-one]
IC50 (Homo sapiens): < 1000 nM

SMILES: CCn1ncc2c3c(C(C)Nc4ccc(Cl)nc4-c4ncn(C)n4)cc(C)cc3c(=O)n(CC(F)F)c21 (stereo not shown) [Example 236, 9-(1-((6-chloro-2-(1-methyl-1H-1,2,4-triazol-3-yl)pyridin-3-yl)amino)ethyl)-4-(2,2-difluoroethyl)-3-ethyl-7-methyl-3,4-dihydro-5H-pyrazolo[3,4-c]isoquinolin-5-one]
IC50 (Homo sapiens): < 1000 nM

SMILES: CCn1ncc2c3c(C(C)Nc4ccc(Cl)nc4-c4ccnc(C)c4)cc(C)cc3c(=O)n(CC(F)F)c21 (stereo not shown) [Example 237, 9-(1-((6-chloro-2′-methyl-[2,4′-bipyridin]-3-yl)amino)ethyl)-4-(2,2-difluoroethyl)-3-ethyl-7-methyl-3,4-dihydro-5H-pyrazolo[3,4-c]isoquinolin-5-one]
IC50 (Homo sapiens): < 1000 nM

SMILES: CCn1ncc2c3c(C(C)Nc4ccc(Cl)nc4-c4cncnc4)cc(C)cc3c(=O)n(CC(F)F)c21 (stereo not shown) [Example 238, 9-(1-((6-chloro-2-(pyrimidin-5-yl)pyridin-3-yl)amino)ethyl)-4-(2,2-difluoroethyl)-3-ethyl-7-methyl-3,4-dihydro-5H-pyrazolo[3,4-c]isoquinolin-5-one]
IC50 (Homo sapiens): < 1000 nM

Next, values leading:

IC50 (Homo sapiens): < 1000 nM
SMILES: CCn1c(=O)c2cc(C)cc(C(C)Nc3ccc(Cl)nc3-c3ccc(C(=O)NC)nc3)c2c2cnn([C@H]3CCOC3)c21 (stereo partly drawn) [Example 220, 6-chloro-3-((1-(4-ethyl-7-methyl-5-oxo-3-((S)-tetrahydrofuran-3-yl)-4,5-dihydro-3H-pyrazolo[3,4-c]isoquinolin-9-yl)ethyl)amino)-N-methyl-[2,3′-bipyridine]-6′-carboxamide]

IC50 (Homo sapiens): < 1000 nM
SMILES: CCn1ncc2c3c(C(C)Nc4ccc(Cl)nc4-c4ncn(C)n4)cc(C)cc3c(=O)n(C3CC3)c21 (stereo not shown) [Example 221, 9-(1-((6-Chloro-2-(1-methyl-1H-1,2,4-triazol-3-yl)pyridin-3-yl)amino)ethyl)-4-cyclopropyl-3-ethyl-7-methyl-3,4-dihydro-5H-pyrazolo[3,4-c]isoquinolin-5-one]

IC50 (Homo sapiens): < 1000 nM
SMILES: CCn1ncc2c3c(C(C)Nc4ccc(Cl)nc4-c4ccc(=O)n(C)c4)cc(C)cc3c(=O)n(C3CC3)c21 (stereo not shown) [Example 222, 9-[1-[[6-chloro-2-(1-methyl-6-oxo-3-pyridyl)-3-pyridyl]amino]ethyl]-4-cyclopropyl-3-ethyl-7-methyl-pyrazolo[3,4-c]isoquinolin-5-one]

IC50 (Homo sapiens): < 1000 nM
SMILES: CCn1ncc2c3c(C(C)Nc4ccc(Cl)nc4-c4ncn(C)n4)cc(C)cc3c(=O)n(C3CCOC3)c21 (stereo not shown) [Example 223, 9-[1-[[6-Chloro-2-(1-methyl-1,2,4-triazol-3-yl)-3-pyridyl]amino]ethyl]-3-ethyl-7-methyl-4-tetrahydrofuran-3-yl-pyrazolo[3,4-c]isoquinolin-5-one]

IC50 (Homo sapiens): < 1000 nM
SMILES: CCn1ncc2c3c(C(C)Nc4ccc(Cl)nc4-c4ncn(C)n4)cc(C)cc3c(=O)n(CCO)c21 (stereo not shown) [Example 224, 9-[1-[[6-Chloro-2-(1-methyl-1,2,4-triazol-3-yl)-3-pyridyl]amino]ethyl]-3-ethyl-4-(2-hydroxyethyl)-7-methyl-pyrazolo[3,4-c]isoquinolin-5-one]

IC50 (Homo sapiens): < 1000 nM
SMILES: CCn1ncc2c3c(CNc4ccc(Cl)nc4-c4ccc(C(=O)NC)c(F)c4)cc(C)cc3c(=O)n(C)c21 [Example 225, 4-(6-Chloro-3-(((3-ethyl-4,7-dimethyl-5-oxo-4,5-dihydro-3H-pyrazolo[3,4-c]isoquinolin-9-yl)methyl)amino)pyridin-2-yl)-2-fluoro-N-methylbenzamide]

IC50 (Homo sapiens): < 1000 nM
SMILES: CCn1ncc2c3c(C(C)Oc4ccc(Cl)nc4-c4c[nH]nc4C)cc(C)cc3c(=O)n(C)c21 (stereo not shown) [Example 226, 9-(1-((6-Chloro-2-(3-methyl-1H-pyrazol-4-yl)pyridin-3-yl)oxy)ethyl)-3-ethyl-4,7-dimethyl-3,4-dihydro-5H-pyrazolo[3,4-c]isoquinolin-5-one]
